According to patent publication US20120122727A1, “IN VITRO METHOD FOR PREDICTING WHETHER A COMPOUND IS GENOTOXIC IN VIVO” (priority 2009, published 2012):

How the values were obtained:
[1] = tested on: primary mouse hepatocytes
[2] = in vivo; cited from earlier work
[3] = tested on: primary mouse hepatocytes; experiment: Gene expression (Affymetrix Mouse Genome 430 2.0) in primary mouse hepatocytes, true vs false GTX, 24 h and 48 h

Cl.ClCc1ccccn1 [2-CP, 2-(Chloromethyl)pyridine.HCl]
Gene expression data AF204959 (Cyp3a25 /// LOC622249) [1]: −0.5019
GTX in vivo [2]: −
Gene expression AA561726 average [3]: −0.4297
Gene expression AF000969 average [3]: 0.2944
Gene expression AF022072 average [3]: 0.04067
Gene expression AF033112 average [3]: −0.6651
Gene expression AF055573 average [3]: 0.3686
Gene expression AF069954 average [3]: 0.199
Gene expression AF297615 average [3]: −0.5906
Gene expression AF335325 average [3]: −0.05667
Gene expression AI594683 average [3]: −0.2197
Gene expression AI747296 average [3]: −0.2637
Gene expression AK005731 average [3]: −0.6019
Gene expression AK007854 average [3]: 0.5513
Gene expression AK010447 average [3]: −0.05023
Gene expression AK010738 average [3]: 0.0059
Gene expression AK014608 average [3]: −0.01263
Gene expression AK017734 average [3]: 0.1489
Gene expression AK018383 average [3]: −0.2158
Gene expression AK019979 average [3]: −0.4249
Gene expression AV095209 average [3]: −0.03467
Gene expression AV141095 average [3]: −0.4102
Gene expression AV173869 average [3]: 0.3109
Gene expression AV216768 average [3]: −0.4179
Gene expression AV219418 average [3]: 0.8281
Gene expression AV221299 average [3]: 0.4545
Gene expression AV246296 average [3]: −0.3558
Gene expression AV251625 average [3]: 0.06723
Gene expression AV254764 average [3]: 0.396
Gene expression AV327248 average [3]: −0.2215
Gene expression BB009155 average [3]: −0.348
Gene expression BB027848 average [3]: 0.2054
Gene expression BB043558 average [3]: −0.2293
Gene expression BB046347 average [3]: 0.187
Gene expression BB140436 average [3]: 0.2823
Gene expression BB204486 average [3]: −0.3875
Gene expression BB223872 average [3]: 0.1743
Gene expression BB246912 average [3]: 0.5739
Gene expression BB275142 average [3]: 0.091
Gene expression BB458460 average [3]: −0.1792
Gene expression BB463610 average [3]: 0.0113
Gene expression BB730977 average [3]: −0.7313
Gene expression BB743970 average [3]: −0.1686
Gene expression BB770528 average [3]: −0.4836
Gene expression BB781615 average [3]: 0.007033
Gene expression BC003284 average [3]: −0.2395
Gene expression BC004827 average [3]: −0.2477
Gene expression BC005552 average [3]: 0.1255
Gene expression BC006713 average [3]: 0.2405
Gene expression BC010318 average [3]: 0.1986
Gene expression BC012247 average [3]: 0.5221
Gene expression BC012955 average [3]: 0.2863
Gene expression BC013893 average [3]: 0.4871
Gene expression BC017615 average [3]: −0.3193
Gene expression BC019379 average [3]: −0.1926
Gene expression BC019882 average [3]: 0.8148
Gene expression BC021352 average [3]: −0.7192
Gene expression BC022148 average [3]: 0.1919
Gene expression BC025169 average [3]: 0.9283
Gene expression BC026131 average [3]: 0.4079
Gene expression BC027026 average [3]: −0.2177
Gene expression BC027121 average [3]: −0.6553
Gene expression BC027185 average [3]: 0.06273
Gene expression BE956581 average [3]: 0.0444
Gene expression BF719766 average [3]: −0.1259
Gene expression BG065754 average [3]: −0.2817
Gene expression BG066491 average [3]: −0.3489
Gene expression BG076151 average [3]: −0.0769
Gene expression BG076333 average [3]: 0.4759
Gene expression BG797099 average [3]: 0.004233
Gene expression BG967046 average [3]: −0.1557
Gene expression BI651416 average [3]: −0.08753
Gene expression BI966443 average [3]: −0.01713
Gene expression BM198879 average [3]: −0.1026
Gene expression BM200015 average [3]: −0.3607
Gene expression BM230508 average [3]: −0.2554
Gene expression BM936480 average [3]: −0.07417
Gene expression BQ174991 average [3]: 0.1864
Gene expression L21027 average [3]: −0.5404
Gene expression NM_007556 average [3]: 0.1685
Gene expression NM_007980 average [3]: −0.2848
Gene expression NM_007987 average [3]: −0.3447
Gene expression NM_008522 average [3]: 0.0213
Gene expression NM_008935 average [3]: −0.2124
Gene expression NM_009897 average [3]: −0.06103
Gene expression NM_011075 average [3]: −0.5782
Gene expression NM_011176 average [3]: −0.0046
Gene expression NM_011316 average [3]: 0.5829
Gene expression NM_012006 average [3]: −0.1277
Gene expression NM_013642 average [3]: 0.3967
Gene expression NM_013738 average [3]: −0.373
Gene expression NM_013929 average [3]: −0.5291
Gene expression NM_018881 average [3]: −0.0599
Gene expression NM_019738 average [3]: −0.5143
Gene expression NM_030697 average [3]: −0.0882
Gene expression NM_053122 average [3]: 0.1396
Gene expression NM_134147 average [3]: 0.6449
Gene expression NM_134188 average [3]: −0.1373
Gene expression X62701 average [3]: −0.146
Gene expression data AF000969 (Cadps2) [3]: −0.1003
Gene expression data AF022072 (Grb10) [3]: 0.621
Gene expression data AF065917 (Lif) [3]: 0.01213
Gene expression data AF297615 (Ggta1) [3]: 0.06963
Gene expression data AI594683 (Dmn) [3]: −0.3157
Gene expression data AI596632 (Ptprg /// LOC632664) [3]: 0.2251
Gene expression data AI987929 (Ndrg1) [3]: −0.1004
Gene expression data AK004419 (Fbxl17) [3]: −0.1203
Gene expression data AK005731 (1700007K13Rik) [3]: 0.1965
Gene expression data AK007766 (1810044A24Rik) [3]: −0.1235
Gene expression data AK007854 (1810053B23Rik) [3]: −0.4492
Gene expression data AK009736 (Gpr137b /// LOC664862 /// LOC673335) [3]: 0.9644
Gene expression data AK010447 (Smyd3) [3]: 0.06097
Gene expression data AK014608 (4632434l11Rik) [3]: 0.5726
Gene expression data AK019979 (2610528E23Rik) [3]: 0.3731
Gene expression data AV095209 (Mthfd1l) [3]: 0.5754
Gene expression data AV141095 (1110033M05Rik) [3]: 0.1817
Gene expression data AV173571 (1700106N22Rik) [3]: −0.01367
Gene expression data AV219418 (Ldhb) [3]: −0.7968
Gene expression data AV223474 (Zdhhc14) [3]: −0.4094
Gene expression data AV298304 (Homez) [3]: 0.1881
Gene expression data AV327248 (Zfp365 /// LOC674611) [3]: 0.1477
Gene expression data AV377066 (9130221J18Rik) [3]: −0.6354
Gene expression data AW240761 (Tbc1d5) [3]: 0.02803
Gene expression data AW543460 (Pard3) [3]: 0.2263
Gene expression data AW543723 [3]: 0.1487
Gene expression data AW986246 (Maoa) [3]: 1.21
Gene expression data BB027848 (4732466D17Rik) [3]: −0.5716
Gene expression data BB043558 (9230114K14Rik) [3]: 0.4946
Gene expression data BB275142 (AW456874) [3]: −0.1954
Gene expression data BB308836 (Ppm1l) [3]: −0.3692
Gene expression data BB318221 (Zdhhc14) [3]: −0.2464
Gene expression data BB463610 (4632434l11Rik) [3]: 0.3848
Gene expression data BB526605 (Mipol1) [3]: −0.2134
Gene expression data BB770528 (Rai2) [3]: −0.3271
Gene expression data BB821363 (Scfd2) [3]: −0.1883
Gene expression data BC004827 (Psat1) [3]: 0.3654
Gene expression data BC008626 (Icam1) [3]: −0.242
Gene expression data BC010462 (BC010462) [3]: −0.5895
Gene expression data BC012247 (Dcxr) [3]: −0.3261
Gene expression data BC012260 (Psmf1) [3]: −0.824
Gene expression data BC015270 (Hist2h3c2) [3]: −0.231
Gene expression data BC016073 (Cdkal1) [3]: 0.03017
Gene expression data BC016265 (Ube2e2) [3]: 0.0177
Gene expression data BC019882 (Acaa1b) [3]: −0.0399
Gene expression data BC025501 (Aaas) [3]: 0.0663
Gene expression data BC025837 (Sbk1) [3]: −0.5042
Gene expression data BC025915 (Cova1) [3]: 0.05827
Gene expression data BC026422 (Tgm1) [3]: −0.3825
Gene expression data BF719766 (Thyn1) [3]: 0.0395
Gene expression data BG065754 (Ccng1) [3]: 0.3287
Gene expression data BG066903 (Kif16b) [3]: 0.3368
Gene expression data BG069873 (Gnb1l) [3]: −0.1027
Gene expression data BG070887 (Gtdc1) [3]: −0.06773
Gene expression data BG076151 (Ppm1d) [3]: 0.1213
Gene expression data BG261907 (Large) [3]: −0.1177
Gene expression data BI651416 (Cdc42bpg) [3]: 0.05237
Gene expression data BI660702 (Ell3) [3]: 0.08167
Gene expression data BM198879 (Ercc5) [3]: 0.2935
Gene expression data BM230508 (A030007D23Rik) [3]: 0.3615
Gene expression data NM_007987 (Fas) [3]: 0.2313
Gene expression data NM_008522 (Ltf) [3]: −0.3581
Gene expression data NM_008576 (Abcc1) [3]: 1.199
Gene expression data NM_011176 (St14) [3]: −0.05393
Gene expression data NM_011316 (Saa4) [3]: −0.04463
Gene expression data NM_012006 (Acot1) [3]: 0.6012
Gene expression data NM_013866 (Zfp385) [3]: −0.1346
Gene expression data NM_018770 (Igsf4a) [3]: 0.14
Gene expression data NM_021451 (Pmaip1) [3]: 0.02357
Gene expression data NM_025770 (Atg10) [3]: 0.3445
Gene expression data NM_028803 (Gbe1) [3]: 0.5242
Gene expression data NM_030697 (Ankrd47) [3]: −0.5785
Gene expression data NM_053168 (Trim11) [3]: −0.06783
Gene expression data NM_134188 (Acot2) [3]: 0.501
Gene expression data Y15910 (Diap2) [3]: 0.06693
